# Reference: PubChem BioAssay AID220 (DTP/NCI, 2004)
# Several values for one entry are separate records, joined by “and”; a condition that tells them apart may be missing. Equal values may be shown once. Inconclusive results are not listed.
# System: CD8F1 mice, subcutaneous mammary adenocarcinoma, T/C%
# Test: NCI In Vivo Anticancer Drug Screen. Data for tumor model Mammary Adenocarcinoma CD8F1 (subcutaneous) in CD8F1
# Conditions: higher = larger tumour
# Outline: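 Transplantable tumors were established in mice, animals were dosed with compound or vehicle, and survival or tumor size was then measured in both groups. The treated result was divided by the control result.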
# [1] = endpoint: median tumor weight (est.), dose: 3.12 mg/kg/injection, schedule: Q07DX005 (ip), vehicle: suspension in saline
# [2] = endpoint: median tumor weight (est.), dose: 12.5 mg/kg/injection, schedule: Q07DX005 (ip), vehicle: suspension in saline
# [3] = endpoint: median tumor weight (est.), dose: 25.0 mg/kg/injection, schedule: Q07DX005 (ip), vehicle: saline
# [4] = endpoint: median tumor weight (est.), dose: 25.0 mg/kg/injection, schedule: Q07DX005 (ip), vehicle: suspension in saline
# [5] = endpoint: median tumor weight (est.), dose: 50.0 mg/kg/injection, schedule: Q07DX005 (ip), vehicle: saline
# [6] = endpoint: median tumor weight (est.), dose: 50.0 mg/kg/injection, schedule: Q07DX005 (ip), vehicle: suspension in saline
# [7] = endpoint: median tumor weight change, dose: 62.5 mg/kg/injection, schedule: Q01DX001 (ip), vehicle: Klucel (hydroxypropylcellulose) (HPC)
# [8] = endpoint: median tumor weight change, dose: 125.0 mg/kg/injection, schedule: Q01DX001 (ip), vehicle: saline
# [9] = endpoint: median tumor weight change, dose: 62.5 mg/kg/injection, schedule: Q01DX001 (ip), vehicle: saline with Tween-80
# [10] = endpoint: median tumor weight change, dose: 125.0 mg/kg/injection, schedule: Q01DX001 (ip), vehicle: saline with Tween-80
# [11] = endpoint: median tumor weight change, dose: 250.0 mg/kg/injection, schedule: Q01DX001 (ip), vehicle: saline with Tween-80
# [12] = endpoint: median tumor weight (est.), dose: 12.5 mg/kg/injection, schedule: Q07DX005 (ip), vehicle: saline with Tween-80
structure (smiles),measurement,setting,value
CN(N=O)C(N)=O,T/C,[1],156 % of control
same,T/C,"endpoint: median tumor weight (est.), dose: 12.5 mg/kg/injection, schedule: Q07DX005 (ip), vehicle: saline",103 % of control
same,T/C,[2],104 % of control
same,T/C,[3],81 % of control
same,T/C,[4],100 % of control
same,T/C,[5],39 % of control
same,T/C,[6],31 % of control
same,T/C,"endpoint: median tumor weight change, dose: 15.62 mg/kg/injection, schedule: Q01DX001 (ip), vehicle: Klucel (hydroxypropylcellulose) (HPC)",66 % of control
same,T/C,"endpoint: median tumor weight change, dose: 16.0 mg/kg/injection, schedule: Q01DX001 (ip), vehicle: saline",54 % of control
same,T/C,"endpoint: median tumor weight change, dose: 31.0 mg/kg/injection, schedule: Q01DX001 (ip), vehicle: saline",29 % of control
same,T/C,"endpoint: median tumor weight change, dose: 31.25 mg/kg/injection, schedule: Q01DX001 (ip), vehicle: Klucel (hydroxypropylcellulose) (HPC)",67 % of control
same,T/C,"endpoint: median tumor weight change, dose: 31.25 mg/kg/injection, schedule: Q01DX001 (ip), vehicle: suspension in saline",72 % of control
same,T/C,"endpoint: median tumor weight change, dose: 62.0 mg/kg/injection, schedule: Q01DX001 (ip), vehicle: saline",38 % of control
same,T/C,[7],14 % of control
same,T/C,"endpoint: median tumor weight change, dose: 62.5 mg/kg/injection, schedule: Q01DX001 (ip), vehicle: suspension in saline",57 % of control
same,T/C,[8],-59 % of control
same,T/C,"endpoint: median tumor weight change, dose: 125.0 mg/kg/injection, schedule: Q01DX001 (ip), vehicle: suspension in saline",-2 % of control
CN(N=O)C(=O)N[C@@H](C=O)[C@@H](O)[C@H](O)[C@H](O)CO,T/C,"endpoint: median tumor weight (est.), dose: 16.0 mg/kg/injection, schedule: Q07DX005 (ip), vehicle: Klucel (hydroxypropylcellulose) (HPC)",90 % of control
same,T/C,"endpoint: median tumor weight (est.), dose: 16.0 mg/kg/injection, schedule: Q07DX005 (ip), vehicle: other",101 % of control and 109 % of control
same,T/C,"endpoint: median tumor weight (est.), dose: 32.0 mg/kg/injection, schedule: Q07DX005 (ip), vehicle: Klucel (hydroxypropylcellulose) (HPC)",98 % of control
same,T/C,"endpoint: median tumor weight (est.), dose: 50.0 mg/kg/injection, schedule: Q07DX005 (ip), vehicle: citric acid",98 % of control
same,T/C,"endpoint: median tumor weight (est.), dose: 64.0 mg/kg/injection, schedule: Q07DX005 (ip), vehicle: Klucel (hydroxypropylcellulose) (HPC)",95 % of control
same,T/C,"endpoint: median tumor weight (est.), dose: 64.0 mg/kg/injection, schedule: Q07DX005 (ip), vehicle: other",115 % of control
same,T/C,"endpoint: median tumor weight (est.), dose: 100.0 mg/kg/injection, schedule: Q07DX005 (ip), vehicle: citric acid",76 % of control
same,T/C,"endpoint: median tumor weight (est.), dose: 128.0 mg/kg/injection, schedule: Q07DX005 (ip), vehicle: other",87 % of control
same,T/C,"endpoint: median tumor weight (est.), dose: 200.0 mg/kg/injection, schedule: Q07DX005 (ip), vehicle: citric acid",84 % of control
same,T/C,"endpoint: median tumor weight (est.), dose: 256.0 mg/kg/injection, schedule: Q07DX005 (ip), vehicle: other",39 % of control
same,T/C,"endpoint: median tumor weight (est.), dose: 400.0 mg/kg/injection, schedule: Q07DX005 (ip), vehicle: citric acid",48 % of control
FC(F)(F)c1nc2nc(Cl)c(Cl)nc2[nH]1,T/C,[9],77 % of control
same,T/C,[10],114 % of control
same,T/C,[11],74 % of control
COc1cc(C)c2c(c1C=O)Oc1c(c(C)c(O)c3c1C(O)OC3=O)OC2=O (stereo unspecified),T/C,"endpoint: mean tumor weight, dose: 3.12 mg/kg/injection, schedule: Q07DX005 (ip), vehicle: saline",42 % of control
same,T/C,"endpoint: mean tumor weight, dose: 6.25 mg/kg/injection, schedule: Q07DX005 (ip), vehicle: saline",49 % of control
same,T/C,"endpoint: mean tumor weight, dose: 25.0 mg/kg/injection, schedule: Q07DX005 (ip), vehicle: saline",168 % of control
same,T/C,"endpoint: mean tumor weight, dose: 50.0 mg/kg/injection, schedule: Q07DX005 (ip), vehicle: saline",61 % of control
same,T/C,"endpoint: median tumor weight (est.), dose: 3.12 mg/kg/injection, schedule: Q07DX005 (ip), vehicle: saline",97 % of control
same,T/C,[1],89 % of control
same,T/C,"endpoint: median tumor weight (est.), dose: 6.25 mg/kg/injection, schedule: Q07DX005 (ip), vehicle: saline",114 % of control
same,T/C,"endpoint: median tumor weight (est.), dose: 6.25 mg/kg/injection, schedule: Q07DX005 (ip), vehicle: suspension in saline",104 % of control
same,T/C,[2],94 % of control
same,T/C,[3],75 % of control
same,T/C,[4],96 % of control
same,T/C,[5],96 % of control
same,T/C,[6],88 % of control
same,T/C,"endpoint: median tumor weight (est.), dose: 100.0 mg/kg/injection, schedule: Q07DX005 (ip), vehicle: suspension in saline",90 % of control
O=C1C2CC=CCC2C(=O)N1SC(Cl)(Cl)Cl (stereo unspecified),T/C,"endpoint: median tumor weight (est.), dose: 3.12 mg/kg/injection, schedule: Q07DX005 (ip), vehicle: saline with Tween-80",78 % of control
same,T/C,"endpoint: median tumor weight (est.), dose: 6.25 mg/kg/injection, schedule: Q07DX005 (ip), vehicle: saline with Tween-80",70 % of control
same,T/C,[12],89 % of control
same,T/C,"endpoint: median tumor weight (est.), dose: 25.0 mg/kg/injection, schedule: Q07DX005 (ip), vehicle: saline with Tween-80",74 % of control
O=S(=O)(CCl)OCCCl,T/C,[9],56 % of control
same,T/C,[10],60 % of control
same,T/C,[11],69 % of control
Cn1cnc([N+](=O)[O-])c1[Se]c1nc(N)nc2nc[nH]c12,T/C,"endpoint: median tumor weight (est.), dose: 6.25 mg/kg/injection, schedule: Q07DX005 (ip), vehicle: water",109 % of control
same,T/C,"endpoint: median tumor weight (est.), dose: 12.5 mg/kg/injection, schedule: Q07DX005 (ip), vehicle: water",104 % of control
same,T/C,"endpoint: median tumor weight (est.), dose: 25.0 mg/kg/injection, schedule: Q07DX005 (ip), vehicle: water",173 % of control
same,T/C,"endpoint: median tumor weight (est.), dose: 50.0 mg/kg/injection, schedule: Q07DX005 (ip), vehicle: water",215 % of control
same,T/C,"endpoint: median tumor weight (est.), dose: 200.0 mg/kg/injection, schedule: Q07DX005 (ip), vehicle: water",107 % of control
CC(=O)OC1=NC(C)c2c1cc(OC(C)=O)[nH]c2=O (stereo unspecified),T/C,"endpoint: median tumor weight (est.), dose: 12.5 mg/kg/injection, schedule: Q07DX005 (ip), vehicle: Klucel (hydroxypropylcellulose) (HPC)",86 % of control
same,T/C,"endpoint: median tumor weight (est.), dose: 25.0 mg/kg/injection, schedule: Q07DX005 (ip), vehicle: Klucel (hydroxypropylcellulose) (HPC)",168 % of control
same,T/C,"endpoint: median tumor weight (est.), dose: 50.0 mg/kg/injection, schedule: Q07DX005 (ip), vehicle: Klucel (hydroxypropylcellulose) (HPC)",111 % of control
COc1cccc(C2NC(=O)c3c(n[nH]c3N)S2)c1O (stereo unspecified),T/C,"endpoint: median tumor weight change, dose: 112.5 mg/kg/injection, schedule: Q01DX001 (ip), vehicle: saline with Tween-80",71 % of control
same,T/C,"endpoint: median tumor weight change, dose: 225.0 mg/kg/injection, schedule: Q01DX001 (ip), vehicle: saline with Tween-80",91 % of control
same,T/C,"endpoint: median tumor weight change, dose: 450.0 mg/kg/injection, schedule: Q01DX001 (ip), vehicle: saline with Tween-80",92 % of control
same,T/C,"endpoint: median tumor weight change, dose: 900.0 mg/kg/injection, schedule: Q01DX001 (ip), vehicle: saline with Tween-80",76 % of control
same,T/C,"endpoint: median tumor weight change, dose: 1800.0 mg/kg/injection, schedule: Q01DX001 (ip), vehicle: saline with Tween-80",79 % of control
O=c1c(O)c(-c2cc(O)c(O)c(O)c2)oc2cc(O)cc(O)c12,T/C,"endpoint: median tumor weight (est.), dose: 12.5 mg/kg/injection, schedule: Q07DX005 (ip), vehicle: other",85 % of control
same,T/C,"endpoint: median tumor weight (est.), dose: 25.0 mg/kg/injection, schedule: Q07DX005 (ip), vehicle: other",85 % of control
same,T/C,"endpoint: median tumor weight (est.), dose: 50.0 mg/kg/injection, schedule: Q07DX005 (ip), vehicle: other",122 % of control
same,T/C,"endpoint: median tumor weight (est.), dose: 100.0 mg/kg/injection, schedule: Q07DX005 (ip), vehicle: other",70 % of control
same,T/C,"endpoint: median tumor weight (est.), dose: 200.0 mg/kg/injection, schedule: Q07DX005 (ip), vehicle: other",89 % of control
same,T/C,"endpoint: median tumor weight (est.), dose: 400.0 mg/kg/injection, schedule: Q07DX005 (ip), vehicle: other",70 % of control
same,T/C,[10],61 % of control
same,T/C,[11],46 % of control
same,T/C,"endpoint: median tumor weight change, dose: 500.0 mg/kg/injection, schedule: Q01DX001 (ip), vehicle: saline with Tween-80",40 % of control
CC(=Nc1ccccc1)C1=C(O)C(Cc2ccccc2)NC1=O (stereo unspecified),T/C,[12],218 % of control and 100 % of control
same,T/C,"endpoint: median tumor weight (est.), dose: 50.0 mg/kg/injection, schedule: Q07DX005 (ip), vehicle: saline with Tween-80",89 % of control
same,T/C,"endpoint: median tumor weight (est.), dose: 200.0 mg/kg/injection, schedule: Q07DX005 (ip), vehicle: saline with Tween-80",211 % of control and 85 % of control
same,T/C,"endpoint: median tumor weight (est.), dose: 400.0 mg/kg/injection, schedule: Q07DX005 (ip), vehicle: saline with Tween-80",39 % of control and 62 % of control
O=S(=O)(O)O,T/C,[7],101 % of control
CC(=O)CC(=O)CCC(=O)O,T/C,[8],62 % of control
same,T/C,"endpoint: median tumor weight change, dose: 250.0 mg/kg/injection, schedule: Q01DX001 (ip), vehicle: saline",65 % of control
